{
  "source": "ChEMBL document CHEMBL1201862",
  "about": "“PubChem BioAssay data set” (2004)",
  "test_in_all_cases": "NCI anticancer screen, dose series, 48 h",
  "key": {"HCC 2998": {"tested_on": "HCC 2998"}, "SF-268": {"tested_on": "SF-268"}, "HOP-92": {"tested_on": "HOP-92"}, "CAKI-1": {"tested_on": "CAKI-1"}, "OVCAR-3": {"tested_on": "OVCAR-3"}, "SK-MEL-5": {"tested_on": "SK-MEL-5"}, "KM12": {"tested_on": "KM12"}, "DMS-273": {"tested_on": "DMS-273"}, "RXF 631": {"tested_on": "RXF 631"}, "A549": {"tested_on": "A549"}, "K562": {"tested_on": "K562"}, "OVCAR-8": {"tested_on": "OVCAR-8"}, "NCI-H460": {"tested_on": "NCI-H460"}, "HT-29": {"tested_on": "HT-29"}, "A498": {"tested_on": "A498"}, "SN12C": {"tested_on": "SN12C"}, "DMS-114": {"tested_on": "DMS-114"}, "UACC-62": {"tested_on": "UACC-62"}, "DLD-1": {"tested_on": "DLD-1"}, "M14": {"tested_on": "M14"}, "NCI-H23": {"tested_on": "NCI-H23"}, "NCI-H522": {"tested_on": "NCI-H522"}, "COLO 205": {"tested_on": "COLO 205"}, "SNB-78": {"tested_on": "SNB-78"}, "TK-10": {"tested_on": "TK-10"}, "ACHN": {"tested_on": "ACHN"}, "SW-620": {"tested_on": "SW-620"}, "786-0": {"tested_on": "786-0"}, "U-251": {"tested_on": "U-251"}, "EKVX": {"tested_on": "EKVX"}, "HCT-116": {"tested_on": "HCT-116"}, "UACC-257": {"tested_on": "UACC-257"}, "HCT-15": {"tested_on": "HCT-15"}, "SR": {"tested_on": "SR"}, "LXFL 529": {"tested_on": "LXFL 529"}, "MOLT-4": {"tested_on": "MOLT-4"}, "SK-OV-3": {"tested_on": "SK-OV-3"}, "RPMI-8226": {"tested_on": "RPMI-8226"}, "RXF 393": {"tested_on": "RXF 393"}, "SNB-19": {"tested_on": "SNB-19"}, "XF498": {"tested_on": "XF498"}, "HOP-18": {"tested_on": "HOP-18"}, "Malme-3M": {"tested_on": "Malme-3M"}, "SK-MEL-2": {"tested_on": "SK-MEL-2"}, "SNB-75": {"tested_on": "SNB-75"}, "SF-539": {"tested_on": "SF-539"}, "SK-MEL-28": {"tested_on": "SK-MEL-28"}, "NCI-H226": {"tested_on": "NCI-H226"}, "CCRF-CEM": {"tested_on": "CCRF-CEM"}, "IGROV-1": {"tested_on": "IGROV-1"}, "HL-60": {"tested_on": "HL-60"}, "OVCAR-4": {"tested_on": "OVCAR-4"}, "UO-31": {"tested_on": "UO-31"}, "HOP-62": {"tested_on": "HOP-62"}, "KM-20L2": {"tested_on": "KM-20L2"}},
  "note": "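1) Cells in 96-well plates. 2) Compound, 48 h, 5 concentrations. 3) Linear interpolation between surrounding doses. 4) Unreached endpoint = highest concentration. At the GI50, growth is halved.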 Active and inactive are the calls of the source. Rule as the data show it: active = GI50 up to about 1.1 µM and inactive = higher.",
  "data": [
    {"molecule": "O=C(/C=C/c1cccc2ccccc12)c1ccccc1Cl", "values": [
      {"measurement": "GI50", "setting": "HCC 2998", "value": "15.2 µM (inactive)"},
      {"measurement": "GI50", "setting": "SF-268", "value": "18.4 µM (inactive)"},
      {"measurement": "GI50", "setting": "HOP-92", "value": "13 µM (inactive)"},
      {"measurement": "GI50", "setting": "CAKI-1", "value": "14.4 µM (inactive)"},
      {"measurement": "GI50", "setting": "OVCAR-3", "value": "12.9 µM (inactive)"},
      {"measurement": "GI50", "setting": "SK-MEL-5", "value": "16.9 µM (inactive)"},
      {"measurement": "GI50", "setting": "KM12", "value": "8.63 µM (inactive)"},
      {"measurement": "GI50", "setting": "DMS-273", "value": "14.4 µM (inactive)"},
      {"measurement": "GI50", "setting": "RXF 631", "value": "18.1 µM (inactive)"},
      {"measurement": "GI50", "setting": "A549", "value": "25.8 µM (inactive)"},
      {"measurement": "GI50", "setting": "K562", "value": "5.57 µM (inactive)"},
      {"measurement": "GI50", "setting": "OVCAR-8", "value": "13.6 µM (inactive)"},
      {"measurement": "GI50", "setting": "NCI-H460", "value": "13.5 µM (inactive)"},
      {"measurement": "GI50", "setting": "HT-29", "value": "13.6 µM (inactive)"},
      {"measurement": "GI50", "setting": "A498", "value": "16 µM (inactive)"},
      {"measurement": "GI50", "setting": "SN12C", "value": "> 100 µM (inactive)"},
      {"measurement": "GI50", "setting": "DMS-114", "value": "12 µM (inactive)"},
      {"measurement": "GI50", "setting": "UACC-62", "value": "14.1 µM (inactive)"},
      {"measurement": "GI50", "setting": "DLD-1", "value": "7.89 µM (inactive)"},
      {"measurement": "GI50", "setting": "M14", "value": "15.5 µM (inactive)"},
      {"measurement": "GI50", "setting": "NCI-H23", "value": "14.3 µM (inactive)"},
      {"measurement": "GI50", "setting": "NCI-H522", "value": "14.4 µM (inactive)"},
      {"measurement": "GI50", "setting": "COLO 205", "value": "> 100 µM (inactive)"},
      {"measurement": "GI50", "setting": "SNB-78", "value": "19.6 µM (inactive)"},
      {"measurement": "GI50", "setting": "TK-10", "value": "14.6 µM (inactive)"},
      {"measurement": "GI50", "setting": "ACHN", "value": "17.5 µM (inactive)"},
      {"measurement": "GI50", "setting": "SW-620", "value": "5.58 µM (inactive)"},
      {"measurement": "GI50", "setting": "786-0", "value": "14 µM (inactive)"},
      {"measurement": "GI50", "setting": "U-251", "value": "11.6 µM (inactive)"},
      {"measurement": "GI50", "setting": "EKVX", "value": "15.1 µM (inactive)"},
      {"measurement": "GI50", "setting": "HCT-116", "value": "8.95 µM (inactive)"},
      {"measurement": "GI50", "setting": "UACC-257", "value": "17.4 µM (inactive)"},
      {"measurement": "GI50", "setting": "HCT-15", "value": 6.53, "unit": "µM"},
      {"measurement": "GI50", "setting": "SR", "value": "4.35 µM (inactive)"},
      {"measurement": "GI50", "setting": "LXFL 529", "value": "13.8 µM (inactive)"},
      {"measurement": "GI50", "setting": "MOLT-4", "value": "3.85 µM (inactive)"},
      {"measurement": "GI50", "setting": "SK-OV-3", "value": "21.4 µM (inactive)"},
      {"measurement": "GI50", "setting": "RPMI-8226", "value": "5.43 µM (inactive)"},
      {"measurement": "GI50", "setting": "RXF 393", "value": "16.7 µM (inactive)"},
      {"measurement": "GI50", "setting": "SNB-19", "value": "14.1 µM (inactive)"},
      {"measurement": "GI50", "setting": "XF498", "value": "7.59 µM (inactive)"},
      {"measurement": "GI50", "setting": "HOP-18", "value": "17.1 µM (inactive)"},
      {"measurement": "GI50", "setting": "Malme-3M", "value": "16.4 µM (inactive)"},
      {"measurement": "GI50", "setting": "SK-MEL-2", "value": "19.3 µM (inactive)"},
      {"measurement": "GI50", "setting": "SNB-75", "value": "16.7 µM (inactive)"},
      {"measurement": "GI50", "setting": "SF-539", "value": "17.5 µM (inactive)"},
      {"measurement": "GI50", "setting": "SK-MEL-28", "value": "19.1 µM (inactive)"},
      {"measurement": "GI50", "setting": "NCI-H226", "value": "> 100 µM (inactive)"},
      {"measurement": "GI50", "setting": "CCRF-CEM", "value": "3.72 µM (inactive)"},
      {"measurement": "GI50", "setting": "IGROV-1", "value": "16.6 µM (inactive)"},
      {"measurement": "GI50", "setting": "HL-60", "value": "2.65 µM (inactive)"},
      {"measurement": "GI50", "setting": "OVCAR-4", "value": "15.1 µM (inactive)"},
      {"measurement": "GI50", "setting": "UO-31", "value": "14.8 µM (inactive)"},
      {"measurement": "GI50", "setting": "HOP-62", "value": "18.6 µM (inactive)"},
      {"measurement": "GI50", "setting": "KM-20L2", "value": "12.7 µM (inactive)"}
    ]}
  ]
}
